Data on one compound can be found in US20240261302A1, “METHODS OF TREATING NEURODEGENERATIVE DISEASES OR CONDITIONS” (FloraScience Inc., priority 2023, published 2024).

The test system of one series is HT22 mt-GFP WT cells. The series is described as follows: Cell viability after RSL3 with/without FCCP (CyQUANT DNA-based assay, fluorescence microscopy), mt-GFP WT cells. Details: species or system mouse.
The subject of series [1] is HT22 cells. Description: Ferroptosis Assay (RSL3-induced cell death, MTT). The following applies: for EC50: Mus musculus, HT-22, MTT. It is filed as cell-based, mouse. The protocol: Ferroptosis Assay: HT22 cells were seeded at 3,000 cells/well in 96-well tissue culture plates in DMEM plus 10% FBS and 1% antibiotics. After 24 hr of plating, the cells were pretreated with different concentrations of test compounds or a vehicle control for 1 hr followed by coincubation with 50 nM RSL3 to induce the cell death cascade. After 16 hr of treatment, cell viability was measured by the MTT assay. Optical absorbance was measured at 570 nm on a SpectraMax M5 microplate reader. Samples were analyzed in eight to sixteen wells per independent experiment (n=8-16). Results were presented as the percentage of the controls with vehicle alone.

The subject of series [2] is HT22 cells. Description: Cytotoxicity assessment of CBN in HT22 cells. It is filed as cell-based, mouse. The protocol:
FIGS. 2A-2I show CBN inhibits oxytosis/ferroptosis in HT22 cells. Representative micrographs of HT22 cells following treatment for 16 h: (FIG. 2A) 0.2% ethanol treatment as vehicle control, (FIG. 2B) 5 μM CBN treatment, (FIG. 2C) 5 mM glutamate treatment, (FIG. 2D) 50 nM RSL3 treatment, (FIG. 2E) 5 μM CBN pretreatment for 1 h followed by 5 mM glutamate treatment, (FIG. 2F) 5 μM CBN pretreatment for 1 h followed by 50 nM RSL3 treatment. Micrographs show the representative morphological characteristics of the cell cultures under a given condition of 16 experimental replicates. Scale bar=100 μm. (FIG. 2G) Cells were pretreated with varying concentrations of CBN for 1 h followed by 5 mM glutamate treatment and incubation for 16 h. (FIG. 2H) Cells were pretreated with varying concentrations of CBN for 1 h followed by 50 nM RSL3 treatment and incubation for 16 h. The results are presented as the percentage of the neuroprotective activity relative to control (100%) and Glu/RSL3 (0%). The neuroprotection curves were analyzed by four-parameter regression. (FIG. 2I) Cytotoxicity assessment of CBN in HT22 cells. Cells were treated with increasing concentrations of CBN or 0.2% ethanol vehicle and incubated for 16 h. Data are the mean of 8-16 replicates per condition±SD.

The conditions of series [3]: cited from earlier work.
The subject of another series is BV2 microglia. Description: Mitochondrial Membrane Potential Assay (JC-10) in BV2 cells. It is filed as cell-based. The following applies: 4 hr. The protocol:
BV2 microglial cells were cultured in low glucose DMEM supplemented with GlutaMAX (Invitrogen, Cat #10567014, Carlsbad, CA), 1 mM sodium pyruvate, 10% FBS, and 1% antibiotics including penicillin and streptomycin. Cell cultures were incubated at 37° C. in a fully humidified atmosphere containing 10% CO2.
(§1) Mitochondrial Membrane Potential Assay. Cells seeded at 5,000 cells/well onto 96-well black walled plates were treated with test compounds at the desired concentrations under the culture condition described above. The mitochondrial uncoupler FCCP at 2 μM was used as a reference control. After the desired treatments for 4 hr, the cells were subjected to a JC-10 mitochondrial membrane potential assay according to the manufacturer's instruction. Fluorescence intensities (Ex/Em=490/525 nm, and Ex/Em=540/590 nm) of each well were monitored on a SpectraMax M5 microplate reader. The ratio of fluorescence intensity (590/525 nm) was used to determine the mitochondrial membrane potential (ΔΨm). Decreasing ratios indicate mitochondrial membrane depolarization. Samples were analyzed in eight to sixteen wells per independent experiment (n=8-16). Results were verified by live-cell imaging under a fluorescence microscope.

Series [4] can be described thus: Iron (Fe^2+) Binding Assay (ferrozine method). The following applies: 5 to 10 μM, compared to deferiprone 5 μM. The protocol:
Iron (Fe^2+) Binding Assay. Ferrous iron binding was measured by the ferrozine method. Briefly, test samples at the desired concentrations were mixed with 5 μM ferrous sulfate (FeSO4) in 100 μL of 50 mM HEPES, pH 7.5 in a 96-well plate. After 2 min, 50 μL of 5 mM ferrozine was added and the optical absorbance at 562 nm was measured on a SpectraMax M5 microplate reader. Each sample was analyzed in eight wells per independent experiment (n=8). Iron binding capacities were presented as the percentage of the vehicle controls without (100%) or with iron (0%).

Series [5] relates to HT22 cells. Description: Mitochondrial Membrane Potential Assay (JC-10) in HT22 cells. It is filed as cell-based, mouse. The following applies: 5 μM, 4 hr, p<0.0001. The protocol: as §1
The subject of series [6] is HT22 cells. Description: Oxytosis/ferroptosis assay with erastin (Table 2). The class given is cell-based. The conditions noted are these: Mus musculus, HT-22; erastin as inducer; method not given; read-out: Observed EC50 erastin.
The nature of series [7]: Cell-free, liposome-based assay of lipid peroxidation (STY-BODIPY). The class given is biochemical. The conditions noted are these: test compounds 10 μM. The protocol:
For the cell-free, liposome-based assay, STY-BODIPY (1.5 μM) and liposomes of egg-PC (1 mM) (Avanti Polar Lipids Inc, Cat #840051P, AL) in TBS (pH 7.4) were added to an opaque 96-well plate. This was followed by the addition of test compounds (10 μM). The plate was incubated for 30 min at 37° C. and then vigorously mixed for 5 min. The autoxidation was initiated by the addition of V-70 (0.5 mM) (Fujifilm Wako, Cat #001-70078, Japan), followed by additional mixing for 5 min. Data were acquired at Ex/Em=488/518 nm every 15 min at 37° C. on a SpectraMax M5 microplate reader. Data were transformed into [ox-STY-BODIPY] by taking the raw fluorescent values of the saturated curve of control DMSO and dividing them by the initial concentration of reduced STY-BODIPY ([…]). Samples were analyzed in quadruplicate in four independent experiments (n=4).

A further series concerns primary cortical neurons. Description: Neuroprotection against RSL3 in primary neurons. It is filed as cell-based, rat. The conditions noted are these: CBN 10 μM, data not shown. The protocol:
Embryonic Cortical Neuron Extraction. Primary cortical neurons were prepared from embryonic day 17 Sprague-Dawley rat pups and used at 7 days in vitro as previously described (7 DIV). Neurons were dissociated from the cortex and maintained in Neurobasal-A medium (Invitrogen, Cat #10888022, Carlsbad, CA) supplemented with B-27 Supplement (Invitrogen, Cat #17504044, Carlsbad, CA), 2 mM glutamine, and 1% antibiotics including penicillin and streptomycin. Cell cultures were incubated at 37° C. in a fully humidified atmosphere containing 10% CO2. All animal procedures were approved by the Salk Institute's Institutional Animal Care and Use Committee.

Entries after “also recorded” stand apart in the source; their conditions may differ.

Usually bioavailability stands for dose-corrected exposure relative to a reference, in per cent. Regarding `CCCCCc1cc(O)c2c(c1)OC(C)(C)c1ccc(C)cc1-2` [CBN, 6,6,9-Trimethyl-3-pentyl-benzo[c]chromen-1-ol], the “protection against RSL3-induced cell death, no FCCP pretreatment” value in the series with HT22 mt-GFP WT cells (16 hr) was “strong and equivalent protection”. Moreover, in the series on HT22 mt-GFP WT cells (FCCP 5 μM 24 hr, then 16 hr), the “protection against RSL3 after FCCP pretreatment” value is given as “protected; also recorded: protective”. Further, the “cell numbers after FCCP pretreatment, co-treatment with compound” value with HT22 mt-GFP WT cells (FCCP 24 hr, CBN additional 16 hr) is “did not further change the cell numbers”. The RSL3-induced morphological changes result in the series with HT22 cells [1] (5 μM pretreatment 1 hr, then 50 nM RSL3 16 hr) is on record as “effectively prevented”. In addition, the “neuroprotection against 50 nM RSL3” value with HT22 cells [1] (HT22 cells, CBN 10 μM, data not shown) is recorded as ~100%; in the series on primary cortical neurons it was ~100%. Besides, the EC50 came out at 390 nM in the series with HT22 cells [1] (HT22 cells, 1 hr pretreatment, 50 nM RSL3, 16 hr, read-out: Observed EC50 RSL3); 690 nM in the series on HT22 cells [1] (HT22 cells, 16 hr, read-out: EC50 against oxytosis/ferroptosis induced by 50 nM RSL3 (FIG. 2H)); 2500 nM in the series on HT22 cells [6]. Besides, in the series with HT22 cells [2] (5 μM, 16 hr, microscopic imaging), the “cellular morphology, compound alone” value is given as “did not induce visual changes in cellular morphology”. The “concentrations at which cytotoxicity was noted” value with HT22 cells [2] (HT22 cells, 16 h) was ≥ 500 µM. Besides, the “dose up to which no apparent cytotoxicity was observed” value in the series on HT22 cells [2] (HT22 cells, 16 h) is ≤ 200 µM. The bioavailability in [3] (after oral or inhaled administration) is reported as 10 to 40%. The brain penetrance entry in series [3] (animals and humans) is reported as “good brain penetrance”. Moreover, the “metabolic stability compared to THC” value in [3] (human, in vivo) is “metabolically more stable”. Also, in the series with BV2 microglia, the “decrease of ΔΨm” value is “also observed”. The “Fe^2+ binding” value in series [4] is “did not show significant Fe^2+ binding”. Moreover, the “decrease of mitochondrial membrane potential (ΔΨm)” value in the series on HT22 cells [5] was “approximately 17%”. Moreover, the “inhibition of lipid peroxidation, cell-free” value in [7] was “showed no inhibition”.
